The experiment has as its target T1, Sodium- and chloride-dependent glycine transporter 2 (Homo sapiens, UniProt Q9Y345).
T1 sequence (Q9Y345 whole entry): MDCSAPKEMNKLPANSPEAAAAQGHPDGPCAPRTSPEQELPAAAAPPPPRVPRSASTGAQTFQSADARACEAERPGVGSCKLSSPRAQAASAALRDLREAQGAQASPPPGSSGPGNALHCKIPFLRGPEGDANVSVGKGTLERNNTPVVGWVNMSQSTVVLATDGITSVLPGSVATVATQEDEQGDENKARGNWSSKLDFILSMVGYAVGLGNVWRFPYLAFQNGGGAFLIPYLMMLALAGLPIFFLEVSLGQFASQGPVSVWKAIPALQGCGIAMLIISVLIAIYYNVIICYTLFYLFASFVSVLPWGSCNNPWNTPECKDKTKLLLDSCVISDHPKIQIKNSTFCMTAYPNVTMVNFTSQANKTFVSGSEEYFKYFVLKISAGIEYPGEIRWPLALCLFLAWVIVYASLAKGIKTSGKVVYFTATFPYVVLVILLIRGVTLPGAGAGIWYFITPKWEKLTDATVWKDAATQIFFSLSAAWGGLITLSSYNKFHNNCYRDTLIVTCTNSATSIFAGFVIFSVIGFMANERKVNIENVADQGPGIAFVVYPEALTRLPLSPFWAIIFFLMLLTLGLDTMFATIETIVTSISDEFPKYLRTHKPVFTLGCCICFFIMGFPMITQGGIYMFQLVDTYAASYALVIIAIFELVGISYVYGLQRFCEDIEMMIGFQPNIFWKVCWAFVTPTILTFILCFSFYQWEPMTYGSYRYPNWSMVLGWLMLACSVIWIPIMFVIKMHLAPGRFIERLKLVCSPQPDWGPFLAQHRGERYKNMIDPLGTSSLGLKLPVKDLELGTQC
Description: Substrate uptake by the Glycine Transporter-2 (GlyT2, SLC6A5) as assessed by the fluorescent FLIPR membrane potential dye in HEK-293 JumpIN-SLC6A5 cells (PubChem AID: 1794825)

For `NCC(=O)O` [GLYCINE], the midpoint of the response, the EC50, lay at 128 µM.

Usually EC50 stands for the concentration needed to bring the measured effect to its halfway point. A high value points to lower potency in that assay.

(Values after ChEMBL document CHEMBL5209581, “Membrane potential based assay for SLC6A5 using HEK-293 SLC6A5 OE cells” (2022).)
